US20100248390A1, “COMPOSITIONS AND METHODS FOR IDENTIFYING LIGANDS OF ODORANT RECEPTORS” (DUKE UNIVERSITY, priority 2009, published 2010)

Legend:
[1] = target: T1, mouse odorant receptors (ORs) (Mus musculus, UniProt P23275); assay: CRE-luciferase assay of odorant receptor activation (Dual-Glo, Hana3A cells, RTP1S), dose-response EC50; assay type: cell-based; details: receptor MOR256-17; read-out: log EC50 of odorant at MOR256-17 (0 = no response) (converted)
T1 construct: OR open reading frames were amplified from genomic DNA; expressed in transfected cells; host or cells: Hana3A cells, co-transfected with RTP1S, CRE-luciferase and pRL-SV40
T1 sequence (P23275 1-312): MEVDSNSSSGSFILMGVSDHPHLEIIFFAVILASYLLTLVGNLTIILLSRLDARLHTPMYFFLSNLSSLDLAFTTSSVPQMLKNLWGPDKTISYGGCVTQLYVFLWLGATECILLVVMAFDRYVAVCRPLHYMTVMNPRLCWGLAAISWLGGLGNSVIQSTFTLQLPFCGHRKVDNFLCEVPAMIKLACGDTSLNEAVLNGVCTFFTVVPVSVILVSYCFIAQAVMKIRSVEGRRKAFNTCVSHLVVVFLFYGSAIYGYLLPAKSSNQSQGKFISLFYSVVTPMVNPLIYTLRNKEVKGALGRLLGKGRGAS

[2] = target: T2, human odorant receptors (ORs) (Homo sapiens, UniProt Q8NHC4); assay: as above; assay type: cell-based; details: receptor OR10J5; read-out: log EC50 of odorant at OR10J5 (0 = no response) (converted)
T2 construct: OR open reading frames were amplified from genomic DNA; expressed in transfected cells; host or cells: Hana3A cells, co-transfected with RTP1S, CRE-luciferase and pRL-SV40
T2 sequence (Q8NHC4 1-309): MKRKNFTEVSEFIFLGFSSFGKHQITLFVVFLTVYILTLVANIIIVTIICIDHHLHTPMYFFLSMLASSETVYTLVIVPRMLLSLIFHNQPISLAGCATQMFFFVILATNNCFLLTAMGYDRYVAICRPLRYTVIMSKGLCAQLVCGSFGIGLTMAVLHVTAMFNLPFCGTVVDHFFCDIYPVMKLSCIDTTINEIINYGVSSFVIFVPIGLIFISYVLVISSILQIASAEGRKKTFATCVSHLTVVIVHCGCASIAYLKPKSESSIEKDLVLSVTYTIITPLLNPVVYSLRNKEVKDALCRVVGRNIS
Summary of the method: (§1)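 Hana3A cells were co-transfected with Rho-tagged OR, RTP1S, CRE-luciferase and pRL-SV40, then exposed to odorant in CD293 medium for 4 hrs at 37° C. Firefly luminescence was divided by Renilla and normalized as (LN−Lmin)/(Lmax−Lmin) per plate set. Each dose was tested at least three times, and EC50 came from sigmoidal fits.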

[3] = test system: mouse odorant receptors (ORs); assay: as above; assay type: cell-based; details: 0 = no response; for log EC50, MOR138-1: receptor MOR138-1; for log EC50, MOR139-1: receptor MOR139-1; for log EC50, MOR189-1: receptor MOR189-1; for log EC50, MOR272-1: receptor MOR272-1; for log EC50, MOR273-1: receptor MOR273-1
[4] = test system: MOR2-1; assay: CRE-luciferase assay of odorant receptor activation, enantiomeric pairs; assay type: cell-based, mouse; details: CRE-luciferase in Hana3A cells; at some doses; compared with the other enantiomer; FIG. 6
From the text: OR open reading frames were amplified from genomic DNA using proofreading KOD DNA polymerase (Toyobo/Novagen) and subcloned into pCI expression vectors (Promega) containing the first 20 residues of human rhodopsin (Rho tag). The sequences of the cloned receptors were verified by sequencing (3100 Genetic Analyzer, ABI Biosystems). Immunocytochemistry and FACS analysis. […] For FACS analysis, phycoerythrin (PE)-conjugated anti-mouse IgG (Jackson Immunologicals) was used. In order to monitor the transfection efficiency, Green Fluorescent Protein (GFP) was co-transfected with the OR. The intensity of receptor cell surface expression was calculated as the ratio of PE and GFP expression. 7-aminoactinomycin D (Calbiochem) was added before flow cytometry to mark dead cells which were excluded from the analysis. The gate and mean of PE positive cells was normalized by GFP values. Luciferase assay. […] All luminescence values were divided by the Renilla Luciferase activity to control for transfection efficiency in a given well. […] Each comparison was performed in triplicate; statistical significance was assessed by t-test (uncorrected for multiple comparisons). […] For all remaining odorant pairs the Pearson correlation between EC50 vectors and the Euclidean distance between descriptor vectors was calculated. The Pearson correlation between these two sets of distances was then measured. […]

[5] = test system: MOR107-1; assay: as above; assay type: cell-based, mouse; details: CRE-luciferase in Hana3A cells; (+) versus (−) enantiomer; FIG. 6
From the text: (§2) Cloning mouse and human ORs. 219 mouse and 245 human odorant receptors were cloned with sequence information from The Olfactory Receptor Database (Healy et al., Chemical Senses 22, 321-6 (1997); herein incorporated by reference in its entirety). […] OR open reading frames were amplified from genomic DNA using proofreading KOD DNA polymerase (Toyobo/Novagen) and subcloned into pCI expression vectors (Promega) containing the first 20 residues of human rhodopsin (Rho tag). The sequences of the cloned receptors were verified by sequencing (3100 Genetic Analyzer, ABI Biosystems). Immunocytochemistry and FACS analysis. […] The intensity of receptor cell surface expression was calculated as the ratio of PE and GFP expression. […] Luminescence was measured using a Wallac Victor 1420 plate reader (Perkin-Elmer). All luminescence values were divided by the Renilla Luciferase activity to control for transfection efficiency in a given well. Normalized luciferase activity was calculated using the formula (LN−Lmin)/(Lmax−Lmin), where LN is the luminescence of firefly luciferase in response to the odorant, Lmin is the minimum luciferase value on a plate or set of plates, and Lmax is the maximum luciferase value on a plate or set of plates. The data was analyzed using Microsoft Excel and GraphPad Prism 4. […]

[6] = target: T3, human odorant receptors (ORs) (Homo sapiens, UniProt Q9H255); assay: CRE-luciferase assay of odorant receptor activation (Dual-Glo, Hana3A cells, RTP1S), dose-response EC50; assay type: cell-based; details: receptor OR51E2; read-out: log EC50 of odorant at OR51E2 (0 = no response) (converted)
T3 construct: OR open reading frames were amplified from genomic DNA; expressed in transfected cells; host or cells: Hana3A cells, co-transfected with RTP1S, CRE-luciferase and pRL-SV40
T3 sequence (Q9H255 1-320): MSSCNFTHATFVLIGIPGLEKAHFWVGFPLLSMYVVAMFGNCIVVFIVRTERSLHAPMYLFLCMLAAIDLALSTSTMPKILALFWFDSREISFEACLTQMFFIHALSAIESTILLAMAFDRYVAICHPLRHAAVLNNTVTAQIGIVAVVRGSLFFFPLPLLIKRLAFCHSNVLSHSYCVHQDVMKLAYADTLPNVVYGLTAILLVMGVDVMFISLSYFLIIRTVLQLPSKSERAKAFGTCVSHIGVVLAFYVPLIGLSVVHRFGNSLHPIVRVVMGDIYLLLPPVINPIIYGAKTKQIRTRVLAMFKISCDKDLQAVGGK
Summary of the method: as §1

[7] = test system: MOR271-1; assay: CRE-luciferase assay of odorant receptor activation, enantiomeric pairs; assay type: cell-based, mouse; details: CRE-luciferase in Hana3A cells; (+) versus (−) enantiomer; FIG. 6
From the text: as §2

SMILES | log EC50, MOR138-1 [3] | log EC50, MOR139-1 [3] | log EC50, MOR189-1 [3] | log EC50, MOR272-1 [3] | log EC50, MOR273-1 [3] | other results
CC(C)(O)CCCC1=CCC(C=O)CC1 (stereo not shown) [Lyral] |  |  |  |  |  | EC50 [1]: 55.6 µM; EC50 [2]: 324 µM
CCC(C(=O)O)c1ccccc1 (single isomer, unassigned; (+)) [(+) enantiomer of 2-phenylbutyric acid, (+)-2-Phenylbutyric acid] |  |  |  |  |  | log EC50, MOR2-1 ([3]; receptor MOR2-1): −3.499; response of MOR2-1 [4]: responded more strongly
CC1(C)C(=O)[C@]2(C)CCC1C2 (single isomer, unassigned; (-)) [(−) enantiomer of fenchone, (−)-Fenchone] | −4.481 | −3.879 | −4.239 | −3.558 | −5.231 | log EC50, MOR107-1 ([3]; receptor MOR107-1): −4.302; activation of MOR107-1 [5]: activated only by the (−) enantiomer
CCC(=O)O [Propionic acid] |  |  |  |  |  | EC50 [6]: 109 µM
CC1(C)C(=O)[C@@]2(C)CCC1C2 (single isomer, unassigned; (+)) [(+) enantiomer of fenchone, (+)-Fenchone] | −4.626 | −3.773 | −4.423 | −4.35 | −4.073 | log EC50, MOR271-1 ([3]; receptor MOR271-1): −4.859; activation of MOR271-1 [7]: only activated by the (+) enantiomer
